Experiments:
HNDFs = assay: Cell proliferation, trypan blue exclusion assay in HG-induced HNDFs; format: cell-based, human; conditions: with HG (30 mM) for 72 h (Figure 2D)
Description: Cell proliferation was evaluated using trypan blue exclusion assay as described previously with minor modification. Cells were plated into 6-well plates at a density of 5 × 10^4 cells/well. After incubation overnight, cells were treated with test samples in the presence or absence of HG for 24-72 h. Cells exposed to 0.2% Trypan blue were then counted in a hemocytometer, and cells stained with Trypan blue were excluded. Percentage of viable cells was calculated based on the ratio of viable cells to total cell population in each well. The proliferation rate was calculated based on the number of viable cells in HG or sample-treated groups versus the NG-treated group.

HUVECs = assay: Intracellular ROS by DCF fluorescence assay in HUVECs; format: cell-based, human; conditions: ANM 10 μM with HG (30 mM) for 48 h; HG alone 14.3-fold
Description: Cell viability was dermined by MTT assay. Percentage of viable cells were normalized with control cells (NG). B. Cellular senescence was determined by SA-β-gal activity assay as descrided in Materials and Methods. C., D. Total cell lysate was extracted and senescence-associated marker proteins including p16INK4A, p21CIP1, total and acetylated p53 and FoxO1 were measured by western blot analysis. E. Protein expression levels of SIRT-1 and phos-SIRT-1 were monitored by immunoblotting. […] The intracellular ROS level was quantified by utilizing DCFH-DA assay. G. Western blot analysis was performed to determine the protein expression levels of HO-1 and NQO-1. […] Cell lysates were mixed with luciferase reagents and quantified using an illuminometer. Relative ARE promoter activity was calculated by dividing the relative luciferace unit (RLU) of treated cells by RLU of untraeated cells (NG). Results expressed as mean ± SEM of three indipendent expriments. Statistical significance at ^ФP < 0.05 compared to NG vs. HG and *P < 0.05 compared to HG vs. samples.

Compound: C=C(CCC(C)C1CCC2C3=C(C(=O)C(O)C21C)C1(C)CCC(O)C(C)C1CC3)C(C)C(=O)O (centres unmarked) [ANM, antcin M]
- cell proliferation compared to the HG treatment group (HNDFs): two-fold increase
- intracellular ROS levels (HUVECs): 6.1 fold

From publication PMC5325331, “A steroid like phytochemical Antcin M is an anti-aging reagent that eliminates hyperglycemia-accelerated premature senescence in dermal fibroblasts by direct activation of Nrf2 and SIRT-1” (Oncotarget, 2016)
